The record followed here is ChEMBL document CHEMBL3407488, “Synthesis and L-type calcium channel blocking activity of new chiral oxadiazolothiazinones” (Eur J Med Chem, 2015).

Data set [1] deals with Left cardiac atrium. The data set is described as follows: Negative ionotropic activity in guinea pig left atrium assessed as decrease in developed tension driven at 1 Hz at 10^-6 M relative to control. Type of data set: functional, Cavia porcellus. Set-up: scale not given: the % may be the effect or the level left.
Data set [2] relates to Right cardiac atrium. Briefly: Negative chronotropic activity in guinea pig […] atrium assessed as decrease in atrial rate on spontaneous beating at 10^-4 M relative to control. The format is functional, Cavia porcellus. Set-up: scale not given: the % may be the effect or the level left.
Data set [3] has as its system Cav1.2b. Briefly: Antagonist activity at Cav1.2b in K+-depolarized guinea pig ileum longitudinal smooth muscle assessed as inhibition of calcium-induced contraction at 10^-4 M relative to control. Type of data set: tissue-based, Cavia porcellus. The note with it: read-out: Activity.
Data set [4] is described as follows: Antagonist activity at Cav1.2b in K+-depolarized guinea pig ileum longitudinal smooth muscle assessed as inhibition of calcium-induced contraction. Type of data set: tissue-based. The settings on record: Cavia porcellus.
Data set [5] deals with Left cardiac atrium. Briefly: Negative ionotropic activity in guinea pig left atrium assessed as decrease in developed tension driven at 1 Hz. The format is functional, tissue-based. The note with it: Cavia porcellus.
The species entered for data set [6] is Cavia porcellus. The data set is described as follows: Antagonist activity at Cav1.2a in K+-depolarized guinea pig aortic strips assessed as inhibition of calcium-induced contraction at 10^-4 M relative to control. On the set-up: scale not given: the % may be the effect or the level left. The note with it: Aorta. The format is tissue-based.
For data set [7], the system named is Cav1.2b. The data set is described as follows: Antagonist activity at Cav1.2b in K+-depolarized guinea pig ileum longitudinal smooth muscle assessed as inhibition of calcium-induced contraction at 5 x 10^-6 M relative to control. Type of data set: tissue-based, Cavia porcellus. The note with it: read-out: Activity.
Data set [8] relates to Right cardiac atrium. The data set is described as follows: Negative chronotropic activity in guinea pig […] atrium assessed as decrease in atrial rate on spontaneous beating at 5 x 10^-7 M relative to control. Type of data set: functional, Cavia porcellus. On the set-up: scale not given: the % may be the effect or the level left.
The species named for data set [9] is Cavia porcellus. The data set is described as follows: Antagonist activity at Cav1.2a in K+-depolarized guinea pig aortic strips assessed as inhibition of calcium-induced contraction at 5 x 10^-5 M relative to control. The format is tissue-based. On the set-up: scale not given: the % may be the effect or the level left. The note with it: Aorta.
The test system of data set [10] is Left cardiac atrium. The data set is described as follows: Negative ionotropic activity in guinea pig left atrium assessed as decrease in developed tension driven at 1 Hz at 5 x 10^-7 M relative to control. Type of data set: functional, Cavia porcellus. On the set-up: scale not given: the % may be the effect or the level left.
Data set [11] has as its system Right cardiac atrium. Briefly: Negative chronotropic activity in guinea pig […] atrium assessed as decrease in atrial rate on spontaneous beating at 10^-5 M relative to control. Set-up: scale not given: the % may be the effect or the level left. The format is functional, Cavia porcellus.
Data set [12] is described as follows: Selectivity ratio of IC50 for Cav1.2b in K+-depolarized guinea pig ileum longitudinal smooth muscle to IC50 for Cav1.2a in K+-depolarized guinea pig aortic strips. Set-up: species or system Cavia porcellus, Muscle tissue.
Data set [13] can be described thus: Antagonist activity at Cav1.2a in K+-depolarized guinea pig aortic strips assessed as inhibition of calcium-induced contraction. Type of data set: tissue-based. The note with it: Cavia porcellus, Aorta.
Data set [14] concerns Left cardiac atrium. Briefly: Ratio of diltiazem EC50 to compound EC50 for negative ionotropic activity in guinea pig left atrium assessed as decrease in developed tension driven at 1 Hz. The format is functional, Cavia porcellus.
Data set [15] is described as follows: Selectivity ratio of IC50 for Cav1.2b in K+-depolarized guinea pig ileum longitudinal smooth muscle to EC50 for negative ionotropic activity in guinea pig left atrium. On the set-up: species or system Cavia porcellus, Muscle tissue.
The test system of data set [16] is Right cardiac atrium. The data set is described as follows: Negative chronotropic activity in guinea pig […] atrium assessed as decrease in atrial rate on spontaneous beating at 5 x 10^-5 M relative to control. On the set-up: scale not given: the % may be the effect or the level left. The format is functional, Cavia porcellus.
A short description of data set [17]: Selectivity ratio of IC50 for Cav1.2a in K+-depolarized guinea pig aortic strips to IC50 for Cav1.2b in K+-depolarized guinea pig ileum longitudinal smooth muscle. Set-up: species or system Cavia porcellus, Muscle tissue.
For data set [18], the system named is Right cardiac atrium. The data set is described as follows: Negative chronotropic activity in guinea pig […] atrium assessed as decrease in atrial rate on spontaneous beating at 10^-6 M relative to control. Type of data set: functional, Cavia porcellus. On the set-up: scale not given: the % may be the effect or the level left.
Data set [19] relates to Right cardiac atrium. The data set is described as follows: Negative chronotropic activity in guinea pig […] atrium assessed as decrease in atrial rate on spontaneous beating. The format is functional. The note with it: Cavia porcellus.
The test system of data set [20] is Left cardiac atrium. Briefly: Negative ionotropic activity in guinea pig left atrium assessed as decrease in developed tension driven at 1 Hz at 10^-5 M relative to control. Type of data set: functional, Cavia porcellus. On the set-up: scale not given: the % may be the effect or the level left.
For data set [21], the system named is Cav1.2b. Briefly: Antagonist activity at Cav1.2b in K+-depolarized guinea pig ileum longitudinal smooth muscle assessed as inhibition of calcium-induced contraction at 10^-6 M relative to control. The settings on record: read-out: Activity. The format is tissue-based, Cavia porcellus.
In data set [22] the test system is Left cardiac atrium. The data set is described as follows: Negative ionotropic activity in guinea pig left atrium assessed as decrease in developed tension driven at 1 Hz at 5 x 10^-6 M relative to control. The format is functional, Cavia porcellus. On the set-up: scale not given: the % may be the effect or the level left.
In data set [23] the test system is Cav1.2b. The data set is described as follows: Antagonist activity at Cav1.2b in K+-depolarized guinea pig ileum longitudinal smooth muscle assessed as inhibition of calcium-induced contraction at 5 x 10^-5 M relative to control. The format is tissue-based, Cavia porcellus. The note with it: read-out: Activity.
In data set [24] the test system is Right cardiac atrium. Briefly: Negative chronotropic activity in guinea pig […] atrium assessed as decrease in atrial rate on spontaneous beating at 5 x 10^-6 M relative to control. The format is functional, Cavia porcellus. Set-up: scale not given: the % may be the effect or the level left.
Data set [25] has as its system Right cardiac atrium. The data set is described as follows: Negative chronotropic activity in guinea pig […] atrium assessed as decrease in atrial rate on spontaneous beating at 5 x 10^-8 M relative to control. The format is functional, Cavia porcellus. On the set-up: scale not given: the % may be the effect or the level left.
Data set [26] is filed under the species Cavia porcellus. The data set is described as follows: Antagonist activity at Cav1.2a in K+-depolarized guinea pig aortic strips assessed as inhibition of calcium-induced contraction at 5 x 10^-8 M relative to control. The format is tissue-based. The settings on record: Aorta. On the set-up: scale not given: the % may be the effect or the level left.

For `CC1=CS[C@@](OCC(F)(F)F)(c2ccc(Br)cc2)c2noc(=O)n21`, the values for the Activity in data set [1], in [2] and in [6] were 82%, 16% and 12%, respectively. Also, in data set [3], the inhibition at 100 µM worked out at 85%. In [4], the IC50 (commonly the point on the concentration scale where inhibition reaches its midpoint) was 19000 nM. The EC50 – broadly, the concentration giving half of the maximal effect – in data set [5] amounted to 34 nM.

On to `CCO[C@]1(c2ccc(Br)cc2)Sc2ccccc2-n2c1noc2=O`, for which, in data set [7], the inhibition at 5 µM was 78%. Besides, the values for the Activity in data set [8], in data set [9] and in data set [10] were 20%, 8% and 64%, respectively. Also, the IC50 in [4] turned out to be 20 nM. Also, in data set [5], the half-maximal effective concentration (EC50) came to 9.3 nM.

For the compound `CCO[C@]1(c2ccc(Br)cc2)SC=C(C)n2c1noc2=O`, the Activity in [1] is 77%; in data set [11] it was 16%; in [6], 11%. The EC50 in data set [5] turned out to be 70 nM.

For `CCOC1(c2ccc(Br)cc2)Sc2ccccc2-n2c1noc2=O` (racemic), the Activity was 81% in data set [1], 7% in data set [2] and 4% in data set [6]. For the same compound, the inhibition at 100 µM in [3] was 87%. Besides, the IC50 was 8320 nM in [4] and 13 nM in data set [13]. In addition, the EC50 in data set [5] was 13 nM. Also, the “Ratio IC50” value in [12] was determined as 640.

As to `CCOC1(c2ccc(Br)cc2)SC=C(C)n2c1noc2=O` (racemic), the Activity in [1] amounted to 78%; in [2], 5%; in data set [6] it was 19%. In addition, in [3], the inhibition at 100 µM was found to be 3%. Further, the concentration for a half-maximal effect (EC50) in data set [5] was 40 nM. In data set [14], the “Ratio EC50” value is listed as 20.

Take `O=c1onc2n1-c1ccccc1SC2(OCC(F)(F)F)c1ccc(Br)cc1` (racemic): the figures for the Activity in data set [1], in [2] and in data set [6] were 75%, 7% and 21%, respectively. Besides, the inhibition at 100 µM in data set [3] was found to be 54%. The Selectivity ratio in [15] was found to be 1965. In addition, the IC50 in data set [4] worked out at 11800 nM. Also, in data set [5], the 50% effective concentration (EC50) turned out to be 6 nM.

Turning to `CCO[C@@]1(c2ccc(Br)cc2)SC=C(C)n2c1noc2=O`, the Activity came out at 58% in data set [1], 15% in data set [16] and 7% in data set [6].

Turning to `COc1ccc([C@@H]2Sc3ccccc3N(CCN(C)C)C(=O)[C@@H]2OC(C)=O)cc1` [DILTIAZEM], the “Ratio IC50” value in [17] is recorded as 24. Also, the figures for the Activity in [18], in [20] and in [6] were 94%, 78% and 88%, respectively. Besides, in data set [19], the EC30 (as a rule, the concentration at which the effect reaches the 30% level) worked out at 70 nM. Further, the IC50 is 110 nM in data set [4] and 2600 nM in data set [13]. Moreover, the inhibition at 1 µM in data set [21] is 98%. Moreover, the EC50 in data set [5] amounted to 790 nM.

`CCO[C@@]1(c2ccc(Br)cc2)Sc2ccccc2-n2c1noc2=O`: the figures for the Activity in data set [22], in data set [9] and in data set [24] were 25%, 2% and 10%, respectively. In addition, the inhibition at 50 µM in [23] stood at 60%. The IC50 in [4] was found to be 5190 nM.

Regarding `CC1=CSC(OCC(F)(F)F)(c2ccc(Br)cc2)c2noc(=O)n21` (racemic), the Activity stood at 76% in [22], 4% in data set [11] and 28% in [6]. For the same compound, the inhibition at 100 µM in data set [3] came to 73%. The IC50 in data set [4] amounted to 25900 nM. Further, the EC50 in data set [5] amounted to 22 nM. Moreover, the “Ratio EC50” value in data set [14] is 36.

For the compound `CC1=CS[C@](OCC(F)(F)F)(c2ccc(Br)cc2)c2noc(=O)n21`, the Activity was 82% in [22], 40% in data set [16] and 9% in data set [6]. Also, the inhibition at 100 µM in data set [3] stood at 98%. Moreover, the IC50 in data set [4] worked out at 12200 nM. Further, the EC50 in data set [5] worked out at 26 nM.

On to `O=c1onc2n1-c1ccccc1S[C@@]2(OCC(F)(F)F)c1ccc(Br)cc1`, for which the Activity in data set [25] turned out to be 25%; in [26], 28%; in [10], 52%. Moreover, the inhibition at 100 µM in data set [3] came to 47%. For the same compound, in data set [5], the EC50 turned out to be 11 nM.

With `O=c1onc2n1-c1ccccc1S[C@]2(OCC(F)(F)F)c1ccc(Br)cc1`, the figures for the Activity in [1], in [11] and in data set [6] were 77%, 24% and 1%, respectively. Moreover, the inhibition at 100 µM in data set [3] came out at 54%. Besides, in data set [4], the IC50 came out at 4580 nM. Moreover, the EC50 in data set [5] came out at 9.8 nM.
